Experimental data reported in patent US20140228299A1, “PROPHYLACTIC AND THERAPEUTIC AGENT FOR NEUROLOGICAL DISEASES USING LIPOPROTEINS AND PROPHYLACTIC AND THERAPEUTIC METHOD FOR NEUROLOGICAL DISEASES” (National University Corporation Tokyo Medical and Dental …, priority 2011, published 2014).
Non-standard residues stand in square brackets, D forms with d. Residues, ends and D or L forms follow the SMILES beside them. *: point of attachment. Nle = CCCC[C@H](N)C(=O)O; Cbz = O=C(OCc1ccccc1)*; CH2F = FC*

Test system: retinal ganglion cells
Test: Glutamic acid-induced apoptosis of cultured retinal ganglion cells (Hoechst 33342 or calcein AM/propidium iodide staining)
Assay type: cell-based, rat
Settings: for apoptosis of retinal cells induced by glutamic acid (apoptosis-like cells): Hoechst 33342
Experimental: The primary culture of the retinal glia cells was carried out using two-day-old Sprague Dawley (SD) baby rats in accordance with a somewhat modified method (Hayashi et al., J. Biol. Chem. 2009) of the method of Barres et al. (Barres, et al., 1988). The isolated retinal glia cells (RGC) were suspended in a base culture medium of a RGC medium (1 mM glutamine, 5 μg/mL insulin, 60 μg/mL N-acetylcysteine, 62 ng/mL progesterone, 16 μg/mL putrescine, 40 ng/mL sodium selenite, 0.1 mg/mL bovine serum albumin, 40 ng/mL triiodothyronine, 0.1 mg/mL transferrin, 1 mM sodium pyruvate, 2% B27 supplement (Invitrogen, Carlsbad, Calif.), 10 μM forskolin (Sigma, St. Louis, Mo.), 50 ng/mL brain-derived neurotrophic factor (BDNF; PeproTech, Rocky Hill, N.J.), 50 ng/mL ciliary neurotrophic factor (CNTF; Peprotech), and 50 ng/mL basic fibroblast growth factor (bFGF; PeproTech). A 96-well plate was coated with poly-d-lysine (Sigma) and laminin (Sigma), and RGC was placed at the rate of 5,000 cells per well for the 96-well place, 5,000 cells per each culture insert for microdish, or 15,000 cells per dish for compartmentalized culture, followed by incubating for at least 10 days before experimentation.
In the figure, Cant represents a non-treated group, Glu represents a group with 300 μM glutamic acid added, and +glial LP represents a group with 300 μM glutamate+glia-cell-derived lipoprotein containing apolipoprotein E added. Glial LP was added in the concentration of 1 μg cholesterol/mL. After treatment, the rate of apoptosis-like cells was computed by observing the aggregation of the nuclei (a: nuclear staining with Hoechst 33342) or the sustained impermeability of esterase activity/membrane (b: calcein AM/Propidium Iodide staining) in 24 hours.
The induction and detection of apoptosis in RGC were performed in the manner as described below. Specifically, RGC was washed twice with Hanks' balanced salt solution (HBSS) containing 2.4 mM CaCl2 and 20 mM HEPES, but not containing magnesium, and incubated at 37° C. for 2 hours in a medium prepared by adding 300 μM glutamate and 10 μM glycine to the above Hanks' balanced salt solution. After treatment with glutamate, RGC was incubated at 37° C. for 22 hours in a RGC culture medium containing no forskolin, BDNF, CNTF and bFGF. In order to detect apoptosis, RGC was stained with 1 μg/mL of Hoechst 33342 (346-07951, Dojindo, Kumamoto, Japan) or 1 μg/mL of calcein-AM/propidium iodide (341-07381, Dojindo). The fluorescence images were observed by Olympus IX71 microscope. The fragmented or aggregated nuclei stained with the above Hoechst reagent were counted as apoptotic nuclei, and round and smooth nuclei were counted as sound nuclei. As the sound nuclei were not stained with propidium iodide, the nuclei stained with propidium iodide were counted as apoptotic nuclei. More than 300 nuclei were counted in each group.
The apoptosis of RGC was measured in the following manner. The RGC subjected to the primary incubated was incubated two times at 37° C. for 15 minutes using Hanks' Balanced Salt Solution (HBSS) containing 2.4 mM CaCl2 and 20 mM 4-(2-hydroxyethyl)-pyperazine-1-ethanesulfonic acid (HEPES) but containing no magnesium and then washed. […], the magnesium was removed from the washing solution. Thereafter, the RGC was treated or not treated with […] (a co-activating agent for the NMDA receptor) in HBSS containing 2.4 mM CaCl2 and 20 mM HEPES (without magnesium) and then incubated at 37° C. for 2 hours. A control (HBSS containing 2.4 mM CaCl2 and 20 mM HEPES (without containing magnesium)) or the RGC treated or not treated with glutamic acid was incubated at 37° C. for 22 hours in the same medium as used for the RGC (without forskolin, brain-derived neurotrophic factor, ciliary neurotrophic factor and basic fibroblast growth factor). […]

CCCC[C@@H](C=O)NC(=O)[C@H](CC(C)C)NC(=O)[C@H](CC(C)C)NC(C)=O [ALLN, reference compound] (Ac-Leu-Leu-[Nle]-aldehyde)
apoptosis of retinal cells induced by glutamic acid (apoptosis-like cells) (inhibitor 1 μM): inhibition of apoptosis

C[C@]12N[C@H](Cc3ccccc31)c1ccccc12 [MK 801, reference compound]
apoptosis of retinal cells induced by glutamic acid (apoptosis-like cells) (inhibitor 10 μM): inhibition of apoptosis

COC(=O)C[C@H](NC(=O)[C@H](C)NC(=O)[C@@H](NC(=O)OCc1ccccc1)C(C)C)C(=O)CF [Z-VAD-FMK, reference compound] (Cbz-Val-Ala-Asp(OMe)-CH2F)
apoptosis of retinal cells induced by glutamic acid (apoptosis-like cells) (inhibitor 20 μM): apoptosis inhibition

B1: α2-macroglobulin: α2-macroglobulin activated with methylamine; hinders neuroprotection by apoE-containing lipoprotein (protein, UniProt P01023 24-1474, looked up)
Alpha-2-macroglobulin: SVSGKPQYMVLVPSLLHTETTEKGCVLLSYLNETVTVSASLESVRGNRSLFTDLEAENDVLHCVAFAVPKSSSNEEVMFLTVQVKGPTQEFKKRTTVMVKNEDSLVFVQTDKSIYKPGQTVKFRVVSMDENFHPLNELIPLVYIQDPKGNRIAQWQSFQLEGGLKQFSFPLSSEPFQGSYKVVVQKKSGGRTEHPFTVEEFVLPKFEVQVTVPKIITILEEEMNVSVCGLYTYGKPVPGHVTVSICRKYSDASDCHGEDSQAFCEKFSGQLNSHGCFYQQVKTKVFQLKRKEYEMKLHTEAQIQEEGTVVELTGRQSSEITRTITKLSFVKVDSHFRQGIPFFGQVRLVDGKGVPIPNKVIFIRGNEANYYSNATTDEHGLVQFSINTTNVMGTSLTVRVNYKDRSPCYGYQWVSEEHEEAHHTAYLVFSPSKSFVHLEPMSHELPCGHTQTVQAHYILNGGTLLGLKKLSFYYLIMAKGGIVRTGTHGLLVKQEDMKGHFSISIPVKSDIAPVARLLIYAVLPTGDVIGDSAKYDVENCLANKVDLSFSPSQSLPASHAHLRVTAAPQSVCALRAVDQSVLLMKPDAELSASSVYNLLPEKDLTGFPGPLNDQDNEDCINRHNVYINGITYTPVSSTNEKDMYSFLEDMGLKAFTNSKIRKPKMCPQLQQYEMHGPEGLRVGFYESDVMGRGHARLVHVEEPHTETVRKYFPETWIWDLVVVNSAGVAEVGVTVPDTITEWKAGAFCLSEDAGLGISSTASLRAFQPFFVELTMPYSVIRGEAFTLKATVLNYLPKCIRVSVQLEASPAFLAVPVEKEQAPHCICANGRQTVSWAVTPKSLGNVNFTVSAEALESQELCGTEVPSVPEHGRKDTVIKPLLVEPEGLEKETTFNSLLCPSGGEVSEELSLKLPPNVVEESARASVSVLGDILGSAMQNTQNLLQMPYGCGEQNMVLFAPNIYVLDYLNETQQLTPEIKSKAIGYLNTGYQRQLNYKHYDGSYSTFGERYGRNQGNTWLTAFVLKTFAQARAYIFIDEAHITQALIWLSQRQKDNGCFRSSGSLLNNAIKGGVEDEVTLSAYITIALLEIPLTVTHPVVRNALFCLESAWKTAQEGDHGSHVYTKALLAYAFALAGNQDKRKEVLKSLNEEAVKKDNSVHWERPQKPKAPVGHFYEPQAPSAEVEMTSYVLLAYLTAQPAPTSEDLTSATNIVKWITKQQNAQGGFSSTQDTVVALHALSKYGAATFTRTGKAAQVTIQSSGTFSSKFQVDNNNRLLLQQVSLPELPGEYSMKVTGEGCVYLQTSLKYNILPEKEEFPFALGVQTLPQTCDEPKAHTSFQISLSVSYTGSRSASNMAIVDVKMVSGFIPLKPTVKMLERSNHVSRTEVSSNHVLIYLDKVSNQTLSLFFTVLQDVPVRDLKPAIVKVYDYYETDEFAIAEYNAPCSKDLGNA
effect on the neuroprotective effects of the lipoprotein containing apoE (Glu+100 ng protein/mL E-LP in the presence of a2M): hinders the neuroprotective effects
